In ChEMBL document CHEMBL1144021, “Molecular determinants of the anticonvulsant felbamate binding site in the N-methyl-D-aspartate receptor” (J Med Chem, 2008):
Active and inactive are the calls of the source. The calls are words filed in the database; no cut-off is given here.

Assays:
[1] = system: Glutamate receptor ionotropic, NMDA 2B (Homo sapiens), Q13224 [F642A]; assay: Inhibition of NR2B receptor M3c F642A mutant expressed in Xenopus oocytes assessed as NMDA current at 0.5 mM relative to control; type: cell-based; conditions: Oocyte
[2] = system: Glutamate receptor ionotropic, NMDA 2B (Homo sapiens), Q13224 [E236A]; assay: Binding affinity to NR2B receptor ATD E236A mutant
Sequence of Glutamate receptor ionotropic, NMDA 2B (Homo sapiens), Q13224 [E236A] (Q13224 whole entry E236A): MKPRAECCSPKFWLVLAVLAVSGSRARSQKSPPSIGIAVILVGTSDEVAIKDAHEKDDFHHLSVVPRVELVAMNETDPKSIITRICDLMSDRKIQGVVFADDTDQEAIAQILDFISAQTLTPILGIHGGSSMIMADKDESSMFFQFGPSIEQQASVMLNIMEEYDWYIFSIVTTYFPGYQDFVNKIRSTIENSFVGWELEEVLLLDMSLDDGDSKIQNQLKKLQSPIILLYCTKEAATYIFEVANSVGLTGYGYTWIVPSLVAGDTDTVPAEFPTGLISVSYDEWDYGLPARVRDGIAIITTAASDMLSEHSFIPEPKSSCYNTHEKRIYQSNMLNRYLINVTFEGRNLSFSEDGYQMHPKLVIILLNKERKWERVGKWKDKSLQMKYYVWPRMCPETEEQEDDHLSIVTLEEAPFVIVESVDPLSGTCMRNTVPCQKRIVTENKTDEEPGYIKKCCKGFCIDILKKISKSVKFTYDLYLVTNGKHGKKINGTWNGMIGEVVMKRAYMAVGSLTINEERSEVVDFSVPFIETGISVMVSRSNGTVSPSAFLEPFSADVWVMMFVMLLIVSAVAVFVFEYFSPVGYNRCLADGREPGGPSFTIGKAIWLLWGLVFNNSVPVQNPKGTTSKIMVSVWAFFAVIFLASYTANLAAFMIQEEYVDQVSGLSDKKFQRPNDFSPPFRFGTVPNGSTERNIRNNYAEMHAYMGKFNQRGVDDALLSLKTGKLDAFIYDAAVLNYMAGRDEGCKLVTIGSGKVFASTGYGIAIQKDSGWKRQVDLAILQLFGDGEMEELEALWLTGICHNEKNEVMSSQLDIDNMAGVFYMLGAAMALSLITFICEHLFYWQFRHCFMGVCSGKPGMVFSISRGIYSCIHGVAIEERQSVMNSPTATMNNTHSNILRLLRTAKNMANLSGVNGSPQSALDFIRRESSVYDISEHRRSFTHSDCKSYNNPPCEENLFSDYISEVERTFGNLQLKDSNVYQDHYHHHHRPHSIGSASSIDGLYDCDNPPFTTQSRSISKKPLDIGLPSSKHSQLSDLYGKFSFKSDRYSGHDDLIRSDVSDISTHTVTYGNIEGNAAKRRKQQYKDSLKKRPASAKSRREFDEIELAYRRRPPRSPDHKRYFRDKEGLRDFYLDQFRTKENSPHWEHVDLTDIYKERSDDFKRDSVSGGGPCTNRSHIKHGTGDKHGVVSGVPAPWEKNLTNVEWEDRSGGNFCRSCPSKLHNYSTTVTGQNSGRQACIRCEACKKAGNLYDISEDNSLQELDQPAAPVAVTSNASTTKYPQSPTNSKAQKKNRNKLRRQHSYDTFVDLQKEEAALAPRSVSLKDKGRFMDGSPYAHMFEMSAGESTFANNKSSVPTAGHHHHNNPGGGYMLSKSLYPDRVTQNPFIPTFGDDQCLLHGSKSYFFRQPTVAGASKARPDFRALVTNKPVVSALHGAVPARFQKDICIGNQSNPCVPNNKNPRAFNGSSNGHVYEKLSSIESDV

[3] = Ratio of Kapp for wild type NR2B receptor to Kapp for NR2B receptor M3c A652T mutant
[4] = system: Glutamate receptor ionotropic, NMDA 2B (Homo sapiens), Q13224 [K234A]; assay: Inhibition of NR2B receptor ATD K234A mutant expressed in Xenopus oocytes assessed as NMDA current at 0.5 mM relative to control; type: cell-based; conditions: Oocyte
Sequence of Glutamate receptor ionotropic, NMDA 2B (Homo sapiens), Q13224 [K234A] (Q13224 whole entry K234A): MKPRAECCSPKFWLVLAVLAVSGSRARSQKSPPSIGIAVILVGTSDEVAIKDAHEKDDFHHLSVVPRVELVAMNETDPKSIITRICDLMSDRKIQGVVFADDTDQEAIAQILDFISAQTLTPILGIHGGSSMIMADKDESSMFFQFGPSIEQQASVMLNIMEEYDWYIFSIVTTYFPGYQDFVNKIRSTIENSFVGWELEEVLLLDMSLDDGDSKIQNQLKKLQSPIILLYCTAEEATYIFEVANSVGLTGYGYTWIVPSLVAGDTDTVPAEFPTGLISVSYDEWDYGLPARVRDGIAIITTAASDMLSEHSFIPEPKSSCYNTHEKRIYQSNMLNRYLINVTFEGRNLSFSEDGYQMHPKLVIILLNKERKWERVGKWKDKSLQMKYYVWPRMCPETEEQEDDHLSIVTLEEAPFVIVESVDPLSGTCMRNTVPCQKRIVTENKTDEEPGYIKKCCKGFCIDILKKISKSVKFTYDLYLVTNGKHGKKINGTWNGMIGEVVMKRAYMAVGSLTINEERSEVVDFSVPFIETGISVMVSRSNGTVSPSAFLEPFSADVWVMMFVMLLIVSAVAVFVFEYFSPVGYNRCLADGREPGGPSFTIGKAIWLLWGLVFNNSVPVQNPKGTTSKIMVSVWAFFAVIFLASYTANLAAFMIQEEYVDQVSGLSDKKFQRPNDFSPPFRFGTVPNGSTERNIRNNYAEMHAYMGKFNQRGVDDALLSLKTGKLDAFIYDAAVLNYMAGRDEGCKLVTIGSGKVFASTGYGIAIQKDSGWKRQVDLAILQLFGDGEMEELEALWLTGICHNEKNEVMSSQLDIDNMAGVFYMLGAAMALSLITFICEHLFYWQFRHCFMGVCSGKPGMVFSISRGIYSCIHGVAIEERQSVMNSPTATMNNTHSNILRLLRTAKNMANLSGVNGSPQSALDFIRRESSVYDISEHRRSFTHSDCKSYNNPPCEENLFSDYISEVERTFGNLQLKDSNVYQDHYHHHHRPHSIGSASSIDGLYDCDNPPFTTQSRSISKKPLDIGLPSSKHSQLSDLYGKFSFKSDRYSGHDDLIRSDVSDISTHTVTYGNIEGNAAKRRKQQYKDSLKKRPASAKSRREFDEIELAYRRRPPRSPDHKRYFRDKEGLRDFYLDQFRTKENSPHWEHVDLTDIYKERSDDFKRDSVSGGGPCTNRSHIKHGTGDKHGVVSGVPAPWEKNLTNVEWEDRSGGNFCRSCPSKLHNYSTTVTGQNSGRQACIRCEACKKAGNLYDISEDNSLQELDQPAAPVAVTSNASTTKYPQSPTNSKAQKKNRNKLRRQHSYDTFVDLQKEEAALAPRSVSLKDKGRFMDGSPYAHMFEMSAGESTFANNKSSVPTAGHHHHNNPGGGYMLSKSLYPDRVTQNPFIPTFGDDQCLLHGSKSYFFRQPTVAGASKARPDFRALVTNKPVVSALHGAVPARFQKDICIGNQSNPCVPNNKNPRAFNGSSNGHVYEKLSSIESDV

[5] = system: Glutamate receptor ionotropic, NMDA 2B (Homo sapiens), Q13224 [E657A]; assay: Inhibition of NR2B receptor post-M3 E657A mutant expressed in Xenopus oocytes assessed as NMDA current at 0.5 mM relative to control; type: cell-based; conditions: Oocyte
[6] = Ratio of Kapp for wild type NR2B receptor to Kapp for ATD NR2B receptor F176A mutant
[7] = Ratio of Kapp for wild type NR2B receptor to Kapp for NR2B receptor ATD D101A mutant
[8] = Binding affinity to NR2B receptor […]/S645A mutant
[9] = Ratio of Kapp for wild type NR2B receptor to Kapp for NR2B receptor T647A/S645A mutant
[10] = system: Glutamate receptor ionotropic, NMDA 2B (Homo sapiens), Q13224 [F176A]; assay: Binding affinity to NR2B receptor ATD F176A mutant
[11] = system: Glutamate receptor ionotropic, NMDA 2B (Homo sapiens), Q13224 [L650A]; assay: Inhibition of NR2B receptor M3c L650A mutant expressed in Xenopus oocytes assessed as NMDA current at 0.5 mM relative to control; type: cell-based; conditions: Oocyte
[12] = system: Glutamate receptor ionotropic, NMDA 2B (Homo sapiens), Q13224 [K234A]; assay: Binding affinity to NR2B receptor ATD K234A mutant
[13] = system: Glutamate receptor ionotropic, NMDA 2B (Homo sapiens), Q13224 [L643C,T647A]; assay: Binding affinity to NR2B receptor L643C/T647A mutant
[14] = system: Glutamate receptor ionotropic, NMDA 2B (Homo sapiens), Q13224 [V640A]; assay: Inhibition of NR2B receptor M3c V640A mutant expressed in Xenopus oocytes assessed as NMDA current at 0.5 mM relative to control; type: cell-based; conditions: Oocyte
[15] = Ratio of Kapp for wild type NR2B receptor to Kapp for NR2B receptor S645A/T103A mutant
[16] = Ratio of Kapp for wild type NR2B receptor to Kapp for NR2B receptor T103A/K234A mutant
[17] = system: Glutamate receptor ionotropic, NMDA 2B (Homo sapiens), Q13224 [D557A]; assay: Inhibition of NR2B receptor Pre-M1 D557A mutant expressed in Xenopus oocytes assessed as NMDA current at 0.5 mM relative to control; type: cell-based; conditions: Oocyte
[18] = system: Glutamate receptor ionotropic, NMDA 2B (Homo sapiens), Q13224 [S645A,K234A]; assay: Binding affinity to NR2B receptor S645A/K234A mutant
[19] = system: Glutamate receptor ionotropic, NMDA 2B (Homo sapiens), Q13224 [T233A]; assay: Inhibition of NR2B receptor ATD T233A mutant expressed in Xenopus oocytes assessed as NMDA current at 0.5 mM relative to control; type: cell-based; conditions: Oocyte
Sequence of Glutamate receptor ionotropic, NMDA 2B (Homo sapiens), Q13224 [T233A] (Q13224 whole entry T233A): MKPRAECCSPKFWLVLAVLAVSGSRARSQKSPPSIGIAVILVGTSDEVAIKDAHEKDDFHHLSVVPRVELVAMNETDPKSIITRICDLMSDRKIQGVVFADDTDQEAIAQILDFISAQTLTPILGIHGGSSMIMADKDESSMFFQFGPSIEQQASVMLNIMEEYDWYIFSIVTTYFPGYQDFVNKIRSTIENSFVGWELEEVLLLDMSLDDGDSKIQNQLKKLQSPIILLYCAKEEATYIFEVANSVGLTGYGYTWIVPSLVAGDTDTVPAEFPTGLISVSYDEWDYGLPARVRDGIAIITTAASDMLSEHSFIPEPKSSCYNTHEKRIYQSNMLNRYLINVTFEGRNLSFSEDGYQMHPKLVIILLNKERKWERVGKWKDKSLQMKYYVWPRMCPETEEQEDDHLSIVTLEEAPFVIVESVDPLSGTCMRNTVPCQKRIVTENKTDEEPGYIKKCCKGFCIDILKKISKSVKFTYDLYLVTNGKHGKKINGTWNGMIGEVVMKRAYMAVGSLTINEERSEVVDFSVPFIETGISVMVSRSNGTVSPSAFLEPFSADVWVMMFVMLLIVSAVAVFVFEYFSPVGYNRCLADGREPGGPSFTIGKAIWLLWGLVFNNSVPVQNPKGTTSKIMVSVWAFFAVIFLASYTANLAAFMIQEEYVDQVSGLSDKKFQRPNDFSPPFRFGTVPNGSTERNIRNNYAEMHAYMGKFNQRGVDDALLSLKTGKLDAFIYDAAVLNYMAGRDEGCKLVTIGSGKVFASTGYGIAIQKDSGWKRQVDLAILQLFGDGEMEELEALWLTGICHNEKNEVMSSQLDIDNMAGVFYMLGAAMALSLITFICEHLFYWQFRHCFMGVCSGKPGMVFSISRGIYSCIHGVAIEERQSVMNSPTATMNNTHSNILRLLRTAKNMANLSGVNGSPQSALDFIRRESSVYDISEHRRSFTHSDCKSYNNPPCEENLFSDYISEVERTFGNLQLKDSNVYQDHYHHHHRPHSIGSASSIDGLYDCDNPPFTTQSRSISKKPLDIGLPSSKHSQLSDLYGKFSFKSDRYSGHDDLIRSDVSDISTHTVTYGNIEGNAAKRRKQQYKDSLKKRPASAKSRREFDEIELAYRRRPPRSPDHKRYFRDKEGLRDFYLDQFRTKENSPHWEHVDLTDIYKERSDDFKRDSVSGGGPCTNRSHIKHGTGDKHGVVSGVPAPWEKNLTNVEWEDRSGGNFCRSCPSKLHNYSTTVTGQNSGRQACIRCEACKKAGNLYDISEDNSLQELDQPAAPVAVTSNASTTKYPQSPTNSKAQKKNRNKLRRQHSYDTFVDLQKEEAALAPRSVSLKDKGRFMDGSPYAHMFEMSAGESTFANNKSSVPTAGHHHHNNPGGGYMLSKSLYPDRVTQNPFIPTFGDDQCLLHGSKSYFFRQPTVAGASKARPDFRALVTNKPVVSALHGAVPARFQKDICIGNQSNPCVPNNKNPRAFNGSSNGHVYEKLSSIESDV

[20] = system: Glutamate receptor ionotropic, NMDA 2B (Homo sapiens), Q13224 [E658A]; assay: Inhibition of NR2B receptor post-M3 E658A mutant expressed in Xenopus oocytes assessed as NMDA current at 0.5 mM relative to control; type: cell-based; conditions: Oocyte
[21] = Binding affinity to NR2B receptor […]/K234A mutant
[22] = system: Glutamate receptor ionotropic, NMDA 2B (Homo sapiens), Q13224 [S548A]; assay: Inhibition of NR2B receptor Pre-M1 S548A mutant expressed in Xenopus oocytes assessed as NMDA current at 0.5 mM relative to control; type: cell-based; conditions: Oocyte
[23] = Ratio of Kapp for wild type NR2B receptor to Kapp for NR2B receptor S645A/K234A mutant
[24] = system: Glutamate receptor ionotropic, NMDA 2B (Homo sapiens), Q13224 [S645A,T103A]; assay: Binding affinity to NR2B receptor S645A/T103A mutant
[25] = system: Glutamate receptor ionotropic, NMDA 2B (Homo sapiens), Q13224 [F653A]; assay: Inhibition of NR2B receptor M3c F653A mutant expressed in Xenopus oocytes assessed as NMDA current at 0.5 mM relative to control; type: cell-based; conditions: Oocyte
[26] = system: Glutamate receptor ionotropic, NMDA 2B (Homo sapiens), Q13224 [L643A,T647A]; assay: Binding affinity to NR2B receptor L643A/T647A mutant
[27] = system: Glutamate receptor ionotropic, NMDA 2B (Homo sapiens), Q13224 [T103A,K234A]; assay: Binding affinity to NR2B receptor T103A/K234A mutant
[28] = system: Glutamate receptor ionotropic, NMDA 2B (Homo sapiens), Q13224 [D104A]; assay: Inhibition of NR2B receptor ATD D104A mutant expressed in Xenopus oocytes assessed as NMDA current at 0.5 mM relative to control; type: cell-based; conditions: Oocyte
[29] = system: Glutamate receptor ionotropic, NMDA 2B (Homo sapiens), Q13224 [E236A]; assay: Inhibition of NR2B receptor ATD E236A mutant expressed in Xenopus oocytes assessed as NMDA current at 0.5 mM relative to control; type: cell-based; conditions: Oocyte
[30] = Ratio of Kapp for wild type NR2B receptor to Kapp for NR2B receptor ATD E236A mutant
[31] = Ratio of Kapp for wild type NR2B receptor to Kapp for NR2B receptor M3c I641A mutant
[32] = Ratio of Kapp for wild type NR2B receptor to Kapp for NR2B receptor L643A/T103A mutant
[33] = system: Glutamate receptor ionotropic, NMDA 2B (Homo sapiens), Q13224 [S555A]; assay: Inhibition of NR2B receptor Pre-M1 S555A mutant expressed in Xenopus oocytes assessed as NMDA current at 0.5 mM relative to control; type: cell-based; conditions: Oocyte
[34] = target: Glutamate receptor ionotropic, NMDA 2B (Homo sapiens) (UniProt Q13224); assay: Inhibition of wild type NR2B receptor expressed in Xenopus oocytes assessed as NMDA current at 0.5 mM relative to control; type: cell-based; conditions: Oocyte
[35] = system: Glutamate receptor ionotropic, NMDA 2B (Homo sapiens), Q13224 [T544A]; assay: Inhibition of NR2B receptor Pre-M1 T544A mutant expressed in Xenopus oocytes assessed as NMDA current at 0.5 mM relative to control; type: cell-based; conditions: Oocyte
[36] = Ratio of Kapp for wild type NR2B receptor to Kapp for NR2B receptor ATD K234A mutant
[37] = system: Glutamate receptor ionotropic, NMDA 2B (Homo sapiens), Q13224 [T233A]; assay: Binding affinity to NR2B receptor ATD T233A mutant
[38] = Ratio of Kapp for wild type NR2B receptor to Kapp for NR2B receptor L643A/T647A mutant

inhibition [1]: 75% | Kapp [2]: 2.18 mM | Ratio Ki(app) [3]: 3.3 | inhibition [4]: 85% | inhibition [5]: 61% | Ratio Ki(app) [6]: 3.2 | Ratio Ki(app) [7]: 3.2 | Kapp [8]: 7.04 mM | Ratio Ki(app) [9]: 8.1 | Kapp [10]: 2.77 mM | inhibition [11]: 76% | Kapp [12]: 4.31 mM | Kapp [13]: 18.6 mM | inhibition [14]: 71% | Ratio Ki(app) [15]: 7.2 | Ratio Ki(app) [16]: 4.8 | inhibition [17]: 75% | Kapp [18]: 7.1 mM | inhibition [19]: 84% | inhibition [20]: 65% | Kapp [21]: 7 mM | inhibition [22]: 76% | Ratio Ki(app) [23]: 8.2 | Kapp [24]: 6.28 mM | Activity [25]: inactive | Kapp [26]: 34.5 mM | Kapp [27]: 4.14 mM | inhibition [28]: 75% | inhibition [29]: 83% | Ratio Ki(app) [30]: 2.5 | Ratio Ki(app) [31]: 2.8 | Ratio Ki(app) [32]: 5.8 | inhibition [33]: 72% | inhibition [34]: 68% | inhibition [35]: 69% | Ratio Ki(app) [36]: 4.9 | Kapp [37]: 2.56 mM | Ratio Ki(app) [38]: 40
SMILES: NC(=O)OCC(COC(N)=O)c1ccccc1
